In patent publication US20100256137A1, “INDAZOLAMIDE DERIVATIVES” (MERCK PATENT GESELLSCHAFT MIT BESCHRANKTER HAFTUNG, priority 2007, published 2010):

Molecular target: T1, Recombinant human HSP90a (Homo sapiens, UniProt P07900)
T1 construct: host or cells: E. coli
Experiment: HSP90 radioligand filter binding test ([3H]17AAG competition)
Conditions: [3H]17AAG 0.08 μM, HSP90 1.5 μg/assay, 22° C., 30 min, pH 7.0; read-out: IC50 (HSP90 inhibition)
Description: In the specific case, a radioligand filter binding test is used. The radioligand used here is tritium-labelled 17-allylaminogeldanamycin, [3H]17AAG. This filter binding test allows a targeted search for inhibitors which interfere with the ATP binding site.
HEPES filter buffer (50 mM HEPES, pH 7.0, 5 mM MgCl2, BSA 0.01%)
Multiscreen FB (1 μm) filter plate (Millipore, MAFBNOB 50).
The 96-well microtitre filter plates are firstly irrigated and coated with 0.1% of polyethylenimine.
The test is carried out under the following conditions:
Reaction temperature 22° C.
Reaction time: 30 min., shaking at 800 rpm
50 mM HEPES HCl, pH 7.0, 5 mM MgCl2, 0.01% (w/v) of BSA
At the end of the reaction, the supernatant in the filter plate is removed by suction with the aid of a vacuum manifold (Multiscreen Separation System, Millipore), and the filter is washed twice.
The filter plates are then measured in a beta counter (Microbeta, Wallac) with scintillator (Microscint 20, Packard).
“% of control” is determined from the “counts per minutes” values, and the IC-50 value of a compound is calculated therefrom.

Compound | IC50
Cc1cccc(Cc2n[nH]c3cc(O)c(C(=O)N4Cc5ccccc5C4)cc23)c1 [Compound A1, 5-(1,3-dihydroisoindol-2-ylcarbonyl)-3-(3-methylbenzyl)-6-hydroxy-1H-indazole] | 10 to 1000 nM
Cc1cccc(Cc2n[nH]c3cc(O)c(C(=O)N4CCc5ccccc5C4)cc23)c1 [Compound A2] | 10 to 1000 nM
COc1cccc(Cc2n[nH]c3cc(O)c(C(=O)N4Cc5ccccc5C4)cc23)c1 [Compound A3, 5-(1,3-Dihydroisoindol-2-ylcarbonyl)-3-(3-methoxybenzyl)-6-hydroxy-1H-indazole] | 10 to 1000 nM
CCCCc1n[nH]c2cc(O)c(C(=O)N3Cc4ccccc4C3)cc12 [Compound A4, 5-(1,3-Dihydroisoindol-2-ylcarbonyl)-3-butyl-6-hydroxy-1H-indazole] | 10 to 1000 nM
O=C(c1cc2c(Cc3cccc(Cl)c3)n[nH]c2cc1O)N1CCC(O)C1 (stereo not drawn) [Compound A5, 5-(3-Hydroxypyrrolidin-1-ylcarbonyl)-3-(3-chlorobenzyl)-6-hydroxy-1H-indazole] | 10 to 1000 nM
O=C(c1cc2c(Cc3cccc(Cl)c3)n[nH]c2cc1O)N1CC[C@@H](O)C1 [Compound A7, 5-((R)-3-Hydroxypyrrolidin-1-ylcarbonyl)-3-(3-chlorobenzyl)-6-hydroxy-1H-indazole] | 10 to 1000 nM
Cc1cccc(Cc2n[nH]c3cc(O)c(C(=O)N4CCOCC4)cc23)c1 [Compound A10] | 10 to 1000 nM
Cc1cccc(Cc2n[nH]c3cc(O)c(C(=O)N4CCc5ccccc54)cc23)c1 [Compound A11] | 10 to 1000 nM
CCCCc1n[nH]c2cc(O)c(C(=O)N3Cc4ccc(Br)cc4C3)cc12 [Compound A14, 5-(5-Bromo-1,3-dihydroisoindol-2-ylcarbonyl)-3-butyl-6-hydroxy-1H-indazole] | 1000 to 10000 nM
CCCc1n[nH]c2cc(O)c(C(=O)N3Cc4ccc(Br)cc4C3)cc12 [Compound A15, 5-(5-Bromo-1,3-dihydroisoindol-2-ylcarbonyl)-3-propyl-6-hydroxy-1H-indazole] | 10 to 1000 nM
Cc1cccc(Cc2n[nH]c3cc(O)c(C(=O)N4CCCC4)cc23)c1 [Compound A16, 5-(Pyrrolidin-1-ylcarbonyl)-3-(3-methylbenzyl)-6-hydroxy-1H-indazole] | 10 to 1000 nM
Cc1cccc(Cc2n[nH]c3cc(O)c(C(=O)N4CCN(C)CC4)cc23)c1 [Compound A17] | 10 to 1000 nM
O=C(c1cc2c(CC3CCCC3)n[nH]c2cc1O)N1Cc2ccccc2C1 [Compound A18, 5-(1,3-Dihydroisoindol-2-ylcarbonyl)-3-cyclopentylmethyl-6-hydroxy-1H-indazole] | 10 to 1000 nM
CCCc1n[nH]c2cc(O)c(C(=O)N3Cc4ccc(N5CCOCC5)cc4C3)cc12 [Compound A19] | 10 to 1000 nM
CCCc1n[nH]c2cc(O)c(C(=O)N3Cc4ccc(N5CCN(C)CC5)cc4C3)cc12 [Compound A20] | 10 to 1000 nM
CCCc1n[nH]c2cc(O)c(C(=O)N3Cc4ccc(OCCN(C)C)cc4C3)cc12 [Compound A26, [5-(2-dimethylaminoethoxy)-1,3-dihydroisoindol-2-yl]-(6-hydroxy-3-propyl-1H-indazol-5-yl)methanone] | 10 to 1000 nM
CC(C)CCc1n[nH]c2cc(O)c(C(=O)N3Cc4ccc(OCCN(C)C)cc4C3)cc12 [Compound A27, [5-(2-dimethylaminoethoxy)-1,3-dihydroisoindol-2-yl]-[6-hydroxy-3-(3-methylbutyl)-1H-indazol-5-yl]methanone] | 10 to 1000 nM
CN(C)CCOc1ccc2c(c1)CN(C(=O)c1cc3c(CC4CCCC4)n[nH]c3cc1O)C2 [Compound A28, (3-cyclopentylmethyl-6-hydroxy-1H-indazol-5-yl)-[5-(2-dimethylaminoethoxy)-1,3-dihydroisoindol-2-yl]methanone] | 10 to 1000 nM

Compound | IC50
CN(C)CCOc1ccc2c(c1)CN(C(=O)c1cc3c(CC4CCCCC4)n[nH]c3cc1O)C2 [Compound A29, (3-cyclohexylmethyl-6-hydroxy-1H-indazol-5-yl)-[5-(2-dimethylaminoethoxy)-1,3-dihydroisoindol-2-yl]methanone] | 10 to 1000 nM
CC(C)CCc1n[nH]c2cc(O)c(C(=O)N3Cc4ccc(OC5CCN(C)CC5)cc4C3)cc12 [Compound A30, [6-hydroxy-3-(3-methylbutyl)-1H-indazol-5-yl]-[5-(1-methylpiperidin-4-yloxy)-1,3-dihydroisoindol-2-yl]methanone] | 10 to 1000 nM
CN1CCC(Oc2ccc3c(c2)CN(C(=O)c2cc4c(CC5CCCC5)n[nH]c4cc2O)C3)CC1 [Compound A31, (3-cyclopentylmethyl-6-hydroxy-1H-indazol-5-yl)-[5-(1-methylpiperidin-4-yloxy)-1,3-dihydroisoindol-2-yl]methanone] | 10 to 1000 nM
CN1CCC(Oc2ccc3c(c2)CN(C(=O)c2cc4c(CC5CCCCC5)n[nH]c4cc2O)C3)CC1 [Compound A32, (3-Cyclohexylmethyl-6-hydroxy-1H-indazol-5-yl)-[5-(1-methylpiperidin-4-yloxy)-1,3-dihydroisoindol-2-yl]methanone] | 10 to 1000 nM
CC(C)CCc1n[nH]c2cc(O)c(C(=O)N3Cc4ccc(OCCCN(C)C)cc4C3)cc12 [Compound A33, [5-(3-Dimethylaminopropoxy)-1,3-dihydroisoindol-2-yl]-[6-hydroxy-3-(3-methylbutyl)-1H-indazol-5-yl]methanone] | 10 to 1000 nM
CN(C)CCCOc1ccc2c(c1)CN(C(=O)c1cc3c(CC4CCCC4)n[nH]c3cc1O)C2 [Compound A34] | 10 to 1000 nM
CN(C)CCCOc1ccc2c(c1)CN(C(=O)c1cc3c(CC4CCCCC4)n[nH]c3cc1O)C2 [Compound A35, (3-Cyclohexylmethyl-6-hydroxy-1H-indazol-5-yl)-[5-(3-dimethylaminopropoxy)-1,3-dihydroisoindol-22-yl]methanone] | 10 to 1000 nM
CCN(C)CCOc1ccc2c(c1)CN(C(=O)c1cc3c(CCC(C)C)n[nH]c3cc1O)C2 [Compound A36, {5-[2-(Ethylmeethylamino)ethoxy]-1,3-dihydroisoindol-22-yl}-[6-hydroxy-3-(3-methylbutyl)-1H-indazol-5-yl]methanone] | 10 to 1000 nM
CCN(C)CCOc1ccc2c(c1)CN(C(=O)c1cc3c(CC4CCCC4)n[nH]c3cc1O)C2 [Compound A37, (3-Cyclopentylmethyl-6-hydroxy-1H-indazol-5-yl)-{5-[2-(ethylmethylamino)ethoxy]-1,3-dihydroisoindol-2-yl}methanone] | 10 to 1000 nM
CCN(C)CCOc1ccc2c(c1)CN(C(=O)c1cc3c(CC4CCCCC4)n[nH]c3cc1O)C2 [Compound A38, (3-Cyclohexylmethyl-6-hydroxy-1H-indazol-5-yl)-{5-[2-(ethylmethylamino)ethoxy]-1,3-dihydroisoindol-2-yl}methanone] | 10 to 1000 nM
CC(C)CCc1n[nH]c2cc(O)c(C(=O)N3Cc4ccc(OCCN5CCCCC5)cc4C3)cc12 [Compound A39, [6-Hydroxy-3-(3-methylbutyl)-1H-indazol-5-yl]-[5-(2-piperidin-1-ylethoxy)-1,3-dihydroisoindol-2-yl]methanone] | 10 to 1000 nM
O=C(c1cc2c(CC3CCCC3)n[nH]c2cc1O)N1Cc2ccc(OCCN3CCCCC3)cc2C1 [Compound A40, (3-Cyclopentylmethyl-6-hydroxy-1H-indazol-5-yl)-[5-(2-piperidin-1-ylethoxy)-1,3-dihydroisoindol-2-yl]methanone] | 10 to 1000 nM
O=C(c1cc2c(CC3CCCCC3)n[nH]c2cc1O)N1Cc2ccc(OCCN3CCCCC3)cc2C1 [Compound A41, (3-Cyclohexylmethyl-6-hydroxy-1H-indazol-5-yl)-[5-(2-piperidin-1-ylethoxy)-1,3-dihydroisoindol-2-yl]methanone] | 10 to 1000 nM
N#CCCCOc1ccc2c(c1)CN(C(=O)c1cc3c(CC4CCCC4)n[nH]c3cc1O)C2 [Compound A43, 4-[2-(3-Cyclopentylmethyl-6-hydroxy-1H-indazole-5-carbonyl)-2,3-dihydro-1H-isoindol-5-yloxy]butyronitrile] | 10 to 1000 nM
O=C(c1cc2c(CC3CCCCC3)n[nH]c2cc1O)N1Cc2ccc(OCCN3CCOCC3)cc2C1 [Compound A47, (3-Cyclohexylmethyl-6-hydroxy-1H-indazol-5-yl)-[5-(2-morpholin-4-ylethoxy)-1,3-dihydroisoindol-2-yl]methanone] | 10 to 1000 nM
CCCc1n[nH]c2cc(O)c(C(=O)N3Cc4ccccc4C3C(=O)NCC)cc12 (stereo not drawn) [Compound A48, N-Ethyl-2-(6-hydroxy-3-propyl-1H-indazole-5-carbonyl)-2,3-dihydro-1H-isoindole-1-carboxamide] | 1000 to 10000 nM
CC(C)Cc1n[nH]c2cc(O)c(C(=O)N3Cc4ccccc4C3)cc12 [Compound A49, (1,3-Dihydroisoindol-2-yl)(6-hydroxy-3-isobutyl-1H-indazol-5-yl)methanone] | 10 to 1000 nM
O=C(c1cc2c(CC3CCCCC3)n[nH]c2cc1O)N1Cc2ccccc2C1 [Compound A50, (3-Cyclohexylmethyl-6-hydroxy-1H-indazol-5-yl)-(1,3-dihydroisoindol-2-yl)methanone] | 10 to 1000 nM
